Data as given in US20260262643A1, “HERBICIDAL BENZOXAZINES” (FMC CORPORATION, priority 2022, published 2026).

Columns and labels:
[1] = tested on: kochia; experiment: Test A postemergence; format: in vivo, Bassia scoparia; details: postemergence, 10 days, visual injury, 0 to 100 scale (0 no effect, 100 complete control)
Method in brief: (§1)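 Visual injury ratings on a 0–100 scale (100 = complete control) versus untreated controls, taken 10 days after treatment in greenhouse. Preemergence: directed soil spray onto seeded loam/sand. Postemergence: foliar application at one- to two-leaf stage, plants 2–10 cm. Formulation: non-phytotoxic solvent plus surfactant.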

[2] = tested on: ryegrass, Italian; experiment: Test A postemergence; format: in vivo, Lolium multiflorum; details: 500 g ai/ha, postemergence, 10 days, visual injury, 0 to 100 scale (0 no effect, 100 complete control)
Method in brief: as §1

[3] = tested on: galium; experiment: Test A postemergence; format: in vivo, Galium aparine; details: postemergence, 10 days, visual injury, 0 to 100 scale (0 no effect, 100 complete control)
Method in brief: as §1

[4] = tested on: goosegrass; experiment: Test A preemergence; format: in vivo, Eleusine indica
Method in brief: as §1

[5] = tested on: soybean; experiment: Test A postemergence; format: in vivo, Glycine max; details: 500 g ai/ha, postemergence, 10 days, visual injury, 0 to 100 scale (0 no effect, 100 complete control)
From the text: (§2) Seeds of plant species selected from barnyardgrass (Echinochloa crusgalli), blackgrass (Alopecurus myosuroides), corn (Zea mays), foxtail, giant (giant foxtail, Setaria faberi), goosegrass (Eleusine indica), kochia (Bassia scoparia), oat, wild (wild oat, Avena fatua), pigweed, palmer (palmer amaranth, palmer pigweed, Amaranthus palmeri), Pigweed, Redroot (redroot pigweed, Amaranthus retroflexus), ragweed (common ragweed, Ambrosia artemisiifolia), ryegrass, Italian (italian ryegrass, Lolium multiflorum), soybean (Glycine max), and wheat (Triticum aestivum) were planted into a blend of loam soil and sand and treated preemergence with a directed soil spray using test chemicals formulated in a non-phytotoxic solvent mixture which included a surfactant. At the same time, plants selected from these crops and weed species and also galium (catchweed bedstraw, Galium aparine) and horseweed (Erigeron canadensis) were planted in pots containing the same blend of loam soil and sand and treated with postemergence applications of test chemicals formulated in the same manner. Plants ranged in height from 2 to 10 cm and were in the one- to two-leaf stage for the postemergence treatment. Treated plants and untreated controls were maintained in a greenhouse for 10 days, after which time all treated plants were compared to untreated controls and visually evaluated for injury. Plant response ratings, summarized in Table A, are based on a 0 to 100 scale where 0 is no effect and 100 is complete control. A dash (-) response means no test result.

[6] = tested on: ducksalad; experiment: Test B flooded paddy test; format: in vivo, Heteranthera limosa; details: 250 g ai/ha, Flood, 13 days, 0 to 100 scale (0 no effect, 100 complete control)
Method in brief: (§3)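 Species grown to 2-leaf stage; pots flooded 3 cm above soil and compound applied directly to paddy water, depth maintained throughout. After 13 days in greenhouse, plants visually rated against controls on 0–100 scale (0 no effect, 100 complete control); dash means no result.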

[7] = tested on: pigweed, palmer; experiment: Test A preemergence; format: in vivo, Amaranthus palmeri
Method in brief: as §1

[8] = tested on: foxtail, giant; experiment: Test A postemergence; format: in vivo, Setaria faberi; details: postemergence, 10 days, visual injury, 0 to 100 scale (0 no effect, 100 complete control)
Method in brief: as §1

[9] = tested on: kochia; experiment: Test A preemergence; format: in vivo, Bassia scoparia
Method in brief: as §1

[10] = tested on: ragweed; experiment: Test A postemergence; format: in vivo, Ambrosia artemisiifolia; details: 500 g ai/ha, postemergence, 10 days, visual injury, 0 to 100 scale (0 no effect, 100 complete control)
Method in brief: as §1

[11] = tested on: oat, wild; experiment: Test A postemergence; format: in vivo, Avena fatua; details: 500 g ai/ha, postemergence, 10 days, visual injury, 0 to 100 scale (0 no effect, 100 complete control)
From the text: as §2

[12] = tested on: corn; experiment: Test A preemergence; format: in vivo, Zea mays
From the text: as §2

[13] = tested on: barnyardgrass; experiment: Test B flooded paddy test; format: in vivo, Echinochloa crus-galli; details: 250 g ai/ha, Flood, 13 days, 0 to 100 scale (0 no effect, 100 complete control)
Method in brief: as §3

[14] = tested on: corn; experiment: Test A postemergence; format: in vivo, Zea mays; details: postemergence, 10 days, visual injury, 0 to 100 scale (0 no effect, 100 complete control)
From the text: as §2

[15] = tested on: wheat; experiment: Test A preemergence; format: in vivo, Triticum aestivum
From the text: as §2

[16] = tested on: ryegrass, Italian; experiment: Test A preemergence; format: in vivo, Lolium multiflorum
Method in brief: as §1

[17] = tested on: foxtail, giant; experiment: Test A preemergence; format: in vivo, Setaria faberi
Method in brief: as §1

[18] = tested on: soybean; experiment: Test A preemergence; format: in vivo, Glycine max
From the text: as §2

[19] = tested on: pigweed, palmer; experiment: Test A postemergence; format: in vivo, Amaranthus palmeri; details: 500 g ai/ha, postemergence, 10 days, visual injury, 0 to 100 scale (0 no effect, 100 complete control)
Method in brief: as §1

[20] = tested on: sedge, umbrella; experiment: Test B flooded paddy test; format: in vivo, Cyperus difformis; details: 250 g ai/ha, Flood, 13 days, 0 to 100 scale (0 no effect, 100 complete control)
Method in brief: as §3

[21] = tested on: horseweed; experiment: Test A postemergence; format: in vivo, Erigeron canadensis; details: postemergence, 10 days, visual injury, 0 to 100 scale (0 no effect, 100 complete control)
Method in brief: as §1

[22] = tested on: goosegrass; experiment: Test A postemergence; format: in vivo, Eleusine indica; details: postemergence, 10 days, visual injury, 0 to 100 scale (0 no effect, 100 complete control)
Method in brief: as §1

[23] = tested on: ragweed; experiment: Test A preemergence; format: in vivo, Ambrosia artemisiifolia
Method in brief: as §1

[24] = tested on: blackgrass; experiment: Test A postemergence; format: in vivo, Alopecurus myosuroides
Method in brief: as §1

[25] = tested on: rice; experiment: Test B flooded paddy test; format: in vivo, Oryza sativa; details: 250 g ai/ha, Flood, 13 days, 0 to 100 scale (0 no effect, 100 complete control)
Method in brief: as §3

[26] = tested on: wheat; experiment: Test A postemergence; format: in vivo, Triticum aestivum; details: 500 g ai/ha, postemergence, 10 days, visual injury, 0 to 100 scale (0 no effect, 100 complete control)
From the text: as §2

[27] = 125 g ai/ha, visual injury after 10 days, 0 to 100 scale, 0 is no effect, 100 is complete control
[28] = 500 g ai/ha, 0 to 100 scale (0 no effect, 100 complete control), 10 days
[29] = 125 g ai/ha, postemergence, 10 days, visual injury, 0 to 100 scale (0 no effect, 100 complete control)
[30] = 500 g ai/ha, Postemergence, 0 to 100 scale

CCc1ncn(-c2ccc(C)c(C(=O)N3C[C@H](C)Oc4c(Cl)cccc43)c2)n1 [Compound 75]
10: Plant response rating, Rice [25]
40: Plant response rating, Corn [12, 27]
60: Plant response rating, Corn ([14]; 125 g ai/ha) | Plant response rating, Wheat [26]
80: Plant response rating, Kochia [9, 27] | Plant response rating, Ragweed [10] | Plant response rating, Wheat [15, 28] | Plant response rating, Soybean [18, 27]
0: Plant response rating, Ragweed [23, 27]
90: Plant response rating, Kochia ([1]; 125 g ai/ha) | Plant response rating, Kochia ([1]; 500 g ai/ha) | Plant response rating, Foxtail, Giant ([8]; 125 g ai/ha) | Plant response rating, Kochia [9, 28] | Plant response rating, Oat, Wild [11] | Plant response rating, Corn ([14]; 500 g ai/ha) | Plant response rating, Goosegrass ([22]; 500 g ai/ha) | Plant response rating, Blackgrass [24, 29] | Plant response rating, Blackgrass [24, 30]
30: Plant response rating, Wheat [15, 27]
70: Plant response rating, Ducksalad [6] | Plant response rating, Horseweed ([21]; 500 g ai/ha) | Plant response rating, Goosegrass ([22]; 125 g ai/ha)
98: Plant response rating, Sedge, Umbrella [20]
50: Plant response rating, Corn [12, 28] | Plant response rating, Barnyardgrass [13] | Plant response rating, Horseweed ([21]; 125 g ai/ha)
100: Plant response rating, Ryegrass, Italian [2] | Plant response rating, Galium ([3]; 125 g ai/ha) | Plant response rating, Galium ([3]; 500 g ai/ha) | Plant response rating, Goosegrass [4, 27] | Plant response rating, Goosegrass [4, 28] | Plant response rating, Soybean [5] | Plant response rating, Pigweed, Palmer [7, 27] | Plant response rating, Pigweed, Palmer [7, 28] | Plant response rating, Foxtail, Giant ([8]; 500 g ai/ha) | Plant response rating, Ryegrass, Italian [16, 27] | Plant response rating, Ryegrass, Italian [16, 28] | Plant response rating, Foxtail, Giant [17, 27] | Plant response rating, Foxtail, Giant [17, 28] | Plant response rating, Soybean [18, 28] | Plant response rating, Pigweed, Palmer [19] | Plant response rating, Ragweed [23, 28]

Cc1cccc2c1O[C@@H](C)CN2C(=O)c1cccc(-n2cnc(C3CCC3)n2)c1 [Compound 77]
50: Plant response rating, Wheat [15, 28] | Plant response rating, Soybean [18, 28] | Plant response rating, Horseweed ([21]; 125 g ai/ha) | Plant response rating, Horseweed ([21]; 500 g ai/ha) | Plant response rating, Blackgrass [24, 29]
85: Plant response rating, Sedge, Umbrella [20]
70: Plant response rating, Foxtail, Giant ([8]; 125 g ai/ha) | Plant response rating, Pigweed, Palmer [19] | Plant response rating, Blackgrass [24, 30]
40: Plant response rating, Corn ([14]; 125 g ai/ha)
90: Plant response rating, Kochia ([1]; 125 g ai/ha) | Plant response rating, Kochia ([1]; 500 g ai/ha) | Plant response rating, Pigweed, Palmer [7, 27] | Plant response rating, Foxtail, Giant ([8]; 500 g ai/ha) | Plant response rating, Kochia [9, 27] | Plant response rating, Kochia [9, 28] | Plant response rating, Foxtail, Giant [17, 27]
100: Plant response rating, Galium ([3]; 125 g ai/ha) | Plant response rating, Galium ([3]; 500 g ai/ha) | Plant response rating, Goosegrass [4, 27] | Plant response rating, Goosegrass [4, 28] | Plant response rating, Soybean [5] | Plant response rating, Pigweed, Palmer [7, 28] | Plant response rating, Ryegrass, Italian [16, 28] | Plant response rating, Foxtail, Giant [17, 28]
10: Plant response rating, Oat, Wild [11]
80: Plant response rating, Corn ([14]; 500 g ai/ha) | Plant response rating, Ryegrass, Italian [16, 27]
60: Plant response rating, Ryegrass, Italian [2] | Plant response rating, Goosegrass ([22]; 500 g ai/ha)
20: Plant response rating, Ducksalad [6] | Plant response rating, Wheat [15, 27] | Plant response rating, Goosegrass ([22]; 125 g ai/ha)
0: Plant response rating, Ragweed [10] | Plant response rating, Corn [12, 27] | Plant response rating, Barnyardgrass [13] | Plant response rating, Soybean [18, 27] | Plant response rating, Ragweed [23, 27] | Plant response rating, Ragweed [23, 28] | Plant response rating, Rice [25]
30: Plant response rating, Corn [12, 28] | Plant response rating, Wheat [26]
